Assay results from PubChem BioAssay (NCI).
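Dose response: 5 concentrations. Exposure: 48 h. Format: 96-well plates. Endpoint: linear interpolation; highest concentration if not reached. TGI: concentration producing complete growth inhibition.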

Columns and labels:
Assay in all cases: DTP human tumour cell line panel, 48 h
[1] = system: MOLT-4 leukemia
[2] = system: TK-10 renal
[3] = system: LOX IMVI melanoma
[4] = system: NCI-H460 lung
[5] = system: MALME-3M melanoma
[6] = system: RXF 393 renal
[7] = system: SNB-19 CNS
[8] = system: OVCAR-3 ovarian
[9] = system: NCI-H522 lung
[10] = system: COLO 205 colon
[11] = system: NCI-H226 lung
[12] = system: SF-268 CNS
[13] = system: HOP-18 NSCLC
[14] = system: UO-31 renal
[15] = system: LXFL 529 NSCLC
[16] = system: DMS 114 small cell lung
[17] = system: A498 renal
[18] = system: A549 NSCLC
[19] = system: SK-MEL-2 melanoma
[20] = system: CAKI-1 renal
[21] = system: HOP-62 NSCLC
[22] = system: UACC-62 melanoma
[23] = system: HCT-15 colon
[24] = system: DMS 273 small cell lung
[25] = system: HL-60(TB) leukemia
[26] = system: M19-MEL melanoma
[27] = system: KM20L2 colon
[28] = system: UACC-257 melanoma
[29] = system: SK-OV-3 ovarian
[30] = system: IGROV1 ovarian
[31] = system: SNB-75 CNS
[32] = system: HCC-2998 colon
[33] = system: EKVX NSCLC
[34] = system: ACHN renal
[35] = system: SF-295 CNS
[36] = system: HOP-92 NSCLC
[37] = system: 786-0 renal
[38] = system: SW-620 colon
[39] = system: SK-MEL-28 melanoma
[40] = system: HT29 colon
[41] = system: SR leukemia
[42] = system: OVCAR-5 ovarian
[43] = system: DLD-1 colon
[44] = system: U251 CNS
[45] = system: KM12 colon
[46] = system: CCRF-CEM leukemia
[47] = system: SK-MEL-5 melanoma
[48] = system: RPMI-8226 leukemia
[49] = system: NCI-H23 lung
[50] = system: HCT-116 colon
[51] = system: SF-539 CNS
[52] = system: OVCAR-8 ovarian
[53] = system: K-562 leukemia
[54] = system: SN12C renal
[55] = system: XF 498 CNS
[56] = system: M14 melanoma
[57] = system: OVCAR-4 ovarian
[58] = system: SNB-78 CNS

Measured: TGI

CNS(=O)(=O)NNS(=O)(=O)c1ccccc1
not listed: [57] | [58]
> 100 µM: all other assays above

CC1(C)C(=O)/C=C\C(=O)C(C)(C)C2=CC=C(O2)C(C)(C)C(=O)/C=C\C(=O)C(C)(C)C2=CC=C1O2
not listed: [14] | [16] | [22] | [31] | [43] | [47] | [48] | [51] | [56]
> 100 µM: all other assays above
